Experimental data reported in patent US20090275606A1, “Heterocyclic Compounds as MEK Inhibitors” (Novartis AG, priority 2008, published 2009).

Tested on: A375 cells
Experiment: Cell viability assay in A375 cells (XTT)
Assay type: cell-based
Settings: Homo sapiens, A-375, 72 h, three days after compound addition
Procedure: The cell viability assay in A375 cells is set up in a 96-well plate format using XTT.
XTT is a yellow tetrazolium salt that is cleaved to an orange formazan dye by the mitochondria of metabolically active cells. The procedure allows for rapid determination in a microtitre plate, to give reproducible and sensitive results.
A375 cells are grown in DMEM media containing 10% FBS and 1 mM sodium pyruvate. Cells are trypsinized and seeded at 1000 cells/well. After allowing the cells to adhere overnight, compound is added to the wells at the following final concentrations: 10, 3, 1, 0.3, 0.1, 0.03, 0.01, 0.001, and 0.0001 μM. The assay is set up in triplicates for each concentration. DMSO concentrations are kept at 0.5%/well. Three days after compound addition, the XTT assay is performed. Wells are washed once with PBS. 100 μL of DMEM media without phenol red or FBS is added to each well. A working solution of XTT containing 1 mg/ml XTT and 100 μL of PMS (stock concentration 0.383 mg/ml) per 5 ml is prepared. 50 μL of the working solution of XTT is added to each well. Absorbance of the plate is read at 465 nm using a Spectramax 190 (Molecular Devices). The absorbance from wells with media and XTT alone, but without cells is considered the blank and subtracted from readings from all wells.
Percentage viability is calculated considering the blank subtracted value from wells treated with DMSO alone as 100% viable. GI50 values are calculated using Graphpad Prism, using non-linear regression curve fit for sigmoidal dose response (variable slope).
The cell viability assay is further described in Scudiero, et. al., Cancer Research (1988) 48, 4827-4833; Weislow, et. al., J. Natl. Cancer Institute, (1989) 81, 577-586; and Roehm, et. al., J. Immunol. Methods [1991]142:257-265.

Compound | GI50
O=C(NOCC1CC1)c1c(Nc2ccc(Br)cc2F)cc(=O)n2c1CCC2 [Compound 4] | 14 nM
NC(=O)c1c(Nc2ccc(I)cc2F)cc(=O)n2c1CCC2 [Compound 38] | 73 nM
O=C(NOCC1CC1)c1c(Nc2ccc(I)cc2F)cc(=O)n2c1CCC2 [Compound 39] | 0.8 nM
O=C(NOCCO)c1c(Nc2ccc(I)cc2F)cc(=O)n2c1CCC2 [Compound 40] | 0.7 nM
CONC(=O)c1c(Nc2ccc(I)cc2F)cc(=O)n2c1CCC2 [Compound 41] | 9 nM
O=C(NOCC1CC1)c1c(Nc2ccc(I)cc2F)c(F)c(=O)n2c1CCC2 [Compound 45] | 0.4 nM

More lines, now with the values ahead:

GI50 | Compound
150 nM | CONC(=O)c1c(Nc2ccc(Br)cc2F)cc(=O)n2c1CCC2 [Compound 6]
40 nM | CCONC(=O)c1c(Nc2ccc(Br)cc2F)cc(=O)n2c1CCC2 [Compound 10]
55 nM | O=C(NOCC1CC1)c1c(Nc2ccc(Br)cc2F)c(F)c(=O)n2c1CCC2 [Compound 20]
36 nM | Cc1c(Nc2ccc(Br)cc2F)c(C(=O)NOCC2CC2)c2n(c1=O)CCC2 [Compound 24]
10 nM | Cc1c(Nc2ccc(Br)cc2F)c(C(=O)NOCCO)c2n(c1=O)CCC2 [Compound 25]
60 nM | CCONC(=O)c1c(Nc2ccc(Br)cc2F)c(C)c(=O)n2c1CCC2 [Compound 27]
3.6 nM | CCONC(=O)c1c(Nc2ccc(I)cc2F)cc(=O)n2c1CCC2 [Compound 42]
6.7 nM | O=C(NOCCO)c1c(Nc2ccc(I)cc2F)c(F)c(=O)n2c1CCC2 [Compound 46]
